Measurements taken from a melting point compilation (Tetko et al.; mined from patent text by program, amines drawn as free bases though some values may be those of a salt).

Row | SMILES | melting point [°C]
1 | Brc1ccc(-c2c(-c3ccccc3)c(-c3ccccc3)c(-c3ccccc3)c(-c3ccccc3)c2-c2ccc(Br)cc2)cc1 | 245
2 | Brc1ccc2c(c1)C(c1ccccn1)=NCc1nncn1-2 | 252 to 255
3 | CN(Cc1ccc(Cl)cc1)C(=O)C12CC3CC(CC(C3)C1)C2 | 65 to 66.5
4 | C=C(NC(C)=O)c1ccc(F)cn1 | 61 to 62.2
5 | C[C@@H]1N(C(=O)OC(C)(C)C)C(=O)C[C@]1(C)O | 122 to 125
6 | CCCCCCCCCCCC(=O)N[C@@H](C)C(=O)N[C@H](CCC(=O)O)C(N)=O | 163
7 | Cn1cc(C(F)(F)F)c(CS(=O)(=O)C2=NOC(C)(C)C2)n1 | 125 to 126
8 | COC(C)=CC(=O)NC1CCC(C)CC1 (centres undefined) | 125
9 | CN(C)C1(C(=O)c2cc3ccccc3n2C)CCC(c2ccccc2)(N(C)C)CC1 (centres undefined) | 109 to 111
10 | CC(C)(C#N)c1c(Cl)cc(-n2ncc(=O)[nH]c2=O)cc1Cl | 180
11 | Cc1ccc(S(=O)(=O)NN=CC(=O)Cl)cc1 | 100 to 110
12 | COc1cccc(C(O)CCN2CC=C(c3ccc(Cl)cc3)CC2)c1 (centres undefined) | 100 to 102
13 | CC(CS(=O)(=O)c1ccccc1)C1CC=C2C3=C(CCC21C)C1(C)CCC(OC(=O)c2ccccc2)C(C)(C)C1CC3 (centres undefined) | 175 to 188
14 | CCN1c2ccccc2Sc2cc(C=O)ccc21 | 94 to 95
15 | OC(CCCN1CCCCC1)c1ccc2c(c1)Cc1cc(C(O)CCCN3CCCCC3)ccc1O2 (centres undefined) | 145 to 146
16 | COc1cc2c(cc1O)CC1CN(C)Cc3c(O)c(OC)cc-2c31 (centres undefined) | 300
17 | O=C(CCCCCl)c1ccccc1 | 49 to 50
18 | CN1CCC(Cn2nc(-c3c(-c4ccccc4)nn4ccccc34)ccc2=O)CC1 | 180 to 181
19 | CCC(CC)O[C@@H]1C=C(C(=O)OC)C[C@H](CC(O)CN=[N+]=[N-])[C@H]1NC(C)=O (some centres undefined) | 92 to 93
20 | CNC(=O)C1CN=CNC1 (centres undefined) | 150 to 151

Row | SMILES | melting point [°C]
21 | COc1ccc(N2CCN(c3ccncc3)CC2)cc1 | 165 to 167
22 | CS(=O)(=O)c1ccc(-c2cnn(CC(F)(F)F)c(=O)c2-c2ccc(Cl)cc2)cc1 | 55 to 57
23 | Nc1nc(N)c(CCCCCc2ccccc2)c(CCCCc2ccccc2)n1 | 75 to 78
24 | Cn1cc(OS(C)(=O)=O)c(=O)c2cc(F)ccc21 | 188 to 189
25 | CC1(C)CCC2=C1CCC1C3CC(C#N)C(=O)C=C3CCC21 (centres undefined) | 163 to 165
26 | CC(C)c1cc(C(C)(C)C)cc(C=O)c1O | 128 to 130
27 | CNC(=O)Nc1ccccc1 | 149 to 150
28 | C=C1SC(=S)N(c2ccc3cc(-c4ccc(OC)c(-c5ccccc5)c4)ccc3c2)C1=O | 266 to 269
29 | Cc1cc(CCCCCCCOc2ccc(C3=N[C@@H](C(C)C)CO3)cc2)on1 | 122 to 123
30 | O=C1c2ccccc2C(=O)N1CCCOc1ccc(OCc2ccccc2)cc1 | 141 to 143
31 | Clc1ccc2[nH]cc([C@H]3CC[C@@H](N4CCN(c5cccc6[nH]ccc56)CC4)CC3)c2c1 | 283 to 285
32 | CCCOc1c(I)cc(C(=O)CCC(=O)c2cc(OC)c(OC)c(OC)c2)cc1OC | 120 to 121
33 | COc1ccc(Cl)cc1-c1nnn(-c2ccc(Cl)cc2Cl)c1N | 154 to 155
34 | Cc1ccc(Sc2cncc3sccc23)cc1 | 94 to 95
35 | NC(C(=O)O)c1c(C(=O)O)csc1-c1ccccc1 (centres undefined) | 266 to 271
36 | CCOC(=O)C1=C(N)NC(N)=C(C(=O)OCC)C1c1ccccc1F | 128 to 130
37 | NC(=O)C1CCC2(CC1)OCCO2 | 167 to 170
38 | Fc1ccc(-c2cncc(CN3CC=C(c4ccccc4)CC3)c2)cc1 | 128 to 129
39 | CC(O)Cc1cc([N+](=O)[O-])cc([N+](=O)[O-])c1N (centres undefined) | 168
40 | FC(F)c1cc(-c2cccc(C(F)(F)F)c2)nc2c(I)cnn12 | 130

Row | SMILES | melting point [°C]
41 | CCCn1c(COC)nc2c(N)nc3ccc(OCCC4CCCN4C)cc3c21 (centres undefined) | 155 to 157
42 | CC(=O)OCCN1CCN(C)c2cc(Nc3ncc(Cl)c(N[C@@H]4CCCC[C@H]4NS(C)(=O)=O)n3)ccc2C1 | 110 to 142
43 | O=C(O)c1cc(C(=O)O)c(C(O)=NCCO)cc1C(O)=NCCO | 280 to 281
44 | CC(O)C1C(=O)NC1CC(=O)OCc1ccccc1 (mixture of isomers) | 67.5 to 68.5
45 | FC(F)(F)c1ccc(-c2cc(C(F)(F)F)n3cncc3n2)cc1 | 158
46 | CN(C)CCN1C(=O)C(NC(=O)CCc2ccc(Cl)cc2Cl)N=C(c2ccccc2)c2ccccc21 (centres undefined) | 199 to 201
47 | CC(=O)N1CC(=O)C2=C(C1)CN1NC(N3CCOCC3)=NC1=N2 | 310 to 313
48 | CCOC(=O)c1c(Cl)nc2cc(F)c(F)cc2c1CCl | 264
49 | ClCSc1ccccc1Br | 28 to 30
50 | CCCCCCCCCCCCCCCc1ccc(-c2nc(-c3ccccc3Cl)nn2C)cc1 | 62 to 65
51 | CCCCc1c(-c2cc3ccccc3o2)nc(N)nc1-c1cc2ccccc2o1 | 142 to 144
52 | CCOC(=O)NCC(=O)c1ccc(OCC(=O)NCCN2CCOCC2)cc1 | 133 to 135
53 | N#Cc1ccc(N2CCCCC2)c2ccsc12 | 99 to 100
54 | N#Cc1ccc(Sc2cc(Cl)ccc2Cl)c(S(=O)(=O)N2CCNCC2)c1 | 156 to 162
55 | Cc1ccc(C=CC#N)cc1C | 93.9
56 | CCCC(C)N1CCC2(CC1)CSC1=C(O2)c2ccccc2C(=O)C1=O (centres undefined) | 109 to 111
57 | CC(C)(C(=O)Cl)C(=S)Cl | 112 to 114
58 | CCCCc1nn(-c2ccccc2C(F)(F)F)c(=O)n1Cc1ccc(-c2ccccc2S(=O)(=O)NC(=O)C2CC2)cc1 | 187 to 189
59 | Nc1c(Cl)cc2nc(O)c(O)nc2c1[N+](=O)[O-] | > 300

Second part, the compound after the results:

Row | melting point [°C] | SMILES
60 | 245 to 251 | CN(C)c1ccc(-c2nc3c(N[C@H]4[C@@H](C(N)=O)[C@@H]5C=C[C@H]4C5)ccnc3[nH]2)cc1
61 | 53 | CCC(C)(C)C1=C(OC(C)=O)C(=O)c2ccccc2C1=O
62 | 142 to 144 | CCCOc1ccc(C(CC(=O)O)N2C(=O)c3ccccc3C2=O)cc1 (centres undefined)
63 | 165 to 167 | NC(=O)c1ccn(-c2ccc(Oc3ccccc3)cc2)n1
64 | 149 to 151 | COC(=O)C1=C(CN2CCN(C)CC2)Nc2ccnc(OC(C)C)c2C1c1ccccc1 (centres undefined)
65 | 115 | COC(=O)CSc1ccc2ccc(Oc3c(Cl)cc(C(F)(F)F)cc3OC)cc2c1
66 | 242 to 243 | Cc1nc2c(O)c(CCC(=O)c3ccccc3)c(C(=O)N3CCC3)cc2n1C
67 | 138 to 140 | CCCc1nc2c(N)nc3ccccc3c2n1CCCCN(OC)C(C)=O
68 | 147 to 150 | Clc1cc(CBr)c2noc(-c3ccc(Br)cc3)c2c1
69 | 100 to 101 | O=S(=O)(CCCCl)Nc1ccccc1OCc1ccc2ccccc2n1
70 | 192 to 194 | CC(=O)c1cn(C)cc(-c2cccc(Br)c2)c1=O
71 | 168 to 170 | COc1ccc(-c2c(C(N)=O)c3n(c2Cl)CCN(C(=O)NC(C)(C)C)C3)cc1
72 | 156 to 158 | COc1ccc(OC)c(S(=O)(=O)n2c(COC(C)(C)C(=O)O)cc3cc(Cl)ccc32)c1
73 | 257 to 260 | CCOC(=O)C1=C(C)NC2=C(C(=O)OC2)C1c1cccc2ncc(-c3ccccc3)cc12 (centres undefined)
74 | 129 | COC(=O)C1=C(C(=O)OC)c2c(sc3ccccc23)CC1
75 | 88 to 90 | CC(C)C[C@H](NC(=O)COc1ccc(Cl)cc1)C(=O)N[C@@H](C(C)C)[C@@H](O)c1c(-c2ccccc2)c1=O
76 | 163 to 165 | CC(=O)c1ccc2c(c1)C(=O)c1ccccc1CN2Cc1ccccc1
77 | 238 to 240 | CCc1cccc(CC)c1NC(=O)NC(c1ccccc1)c1ccccc1
78 | 91 to 94 | COc1ccc(CCNCC(O)c2ccccc2C)cc1OC (centres undefined)
79 | 109 to 110 | O=C(CCNCC(O)COc1cccc2occc12)NCc1ccccc1 (centres undefined)

Row | melting point [°C] | SMILES
80 | 130 to 135 | COC(=O)COc1cccc2c(O)c(C(C)=O)ccc12
81 | 152 to 154 | COc1ccc(CCc2ccncc2NC(=O)NCc2ccccc2)cc1OC1CCCC1
82 | 158 to 160 | COC(=O)c1cccc2cc(Cc3cc(NC(C)=O)ncn3)ccc12
83 | 170 to 171 | Cc1cccc2cc3c(=O)n(CCCN4CCCC4=O)cc(C(=O)NCCN(C)C)c3nc12
84 | 235 to 236 | COc1cc(C)nc(NC(=O)NS(=O)(=O)c2ccccc2C2=CCCC2)n1
85 | 202 to 204 | COc1cc2ncnc(N3CCN(C(=O)NCc4cnc(C)cn4)CC3)c2cc1OC
86 | 160 to 162 | Cc1c(NC(=O)c2ccc(OC[C@@H]3CCCO3)cc2)ccc2c1cc(CNCC(C)(C)O)n2C
87 | 167 to 169 | COc1ccc(S(=O)(=O)N2c3ccccc3-c3ccccc3C2C)cc1 (centres undefined)
88 | > 250 | CCOC(=O)c1nc2c(=O)[nH]c3cc(C(F)(F)F)ccc3n2c1CNCc1ccccc1
89 | 125 to 129 | CCc1nc2c(C)cc(C)nc2n1Cc1ccc(C(=C(Br)C(=O)O)c2ccccc2)cc1
90 | 87 to 92 | CCS(=O)(=O)Nc1cccc(SCc2ccccc2)n1
91 | 198 to 205 | NC(=O)C1CCN(Cc2ccc(-c3cc4ncnc(Nc5ccc6[nH]ccc6c5)c4s3)cc2)CC1
92 | 148 to 150 | COc1cc2cc(C(=O)C(C)CC#N)sc2cc1OC (centres undefined)
93 | 185 to 187 | O=C1NC(=O)C(=Cc2ccc(OCCc3ccccc3)cc2)S1
94 | 106 to 107 | COc1ccc(OC(C)(C)C(=O)O)cc1OCCCc1cn(-c2ccc(C(F)(F)F)cn2)nc1C(C)C
95 | 59.5 to 61.5 | O=S(=O)(F)Cc1ccc(F)c(Oc2ccccc2)c1
96 | 188 to 190 | O=C(/C=C/c1ccc2cc[nH]c2c1)CC(=O)/C=C/c1ccc(OCc2ccccn2)cc1O
97 | 115 to 116 | CCCc1c(OCCCSc2ccc(C(=O)CCC(=O)O)cc2F)ccc(C(C)=O)c1O
98 | 255 | COc1cc(CC(=O)Nc2ccc(C3CN(Cc4ccccc4)CC3C(=O)O)cc2)ccc1NC(=O)Nc1ccccc1C (centres undefined)
99 | 78 to 80 | CCOC(=O)c1ccccc1Nc1nc(Nc2ccc3c(c2)CCN(CCOC)CC3)ncc1Cl
